Data reported in patent US9192601B2, “Methods for enhancing muscle performance and tone” (Salk Institute for Biological Studies, priority 2006, dated 2015).

Key:
C57B/6J mice = assay: Treadmill running endurance test; type: in vivo, mouse
Protocol: Mice were acclimated to moderate treadmill running (10 m/min for 15 min) every other day for 1 week. After acclimation, basal running endurance was determined by placing each mouse on a treadmill, gradually increasing the speed from 0 to 15 m/min, and maintaining 15 m/min until the mouse was exhausted. The time and distance run until exhaustion were recorded as the basal endurance values (Week 0).
Treatments were administered orally.
Expression of biomarkers characteristic of an oxidative phenotype in skeletal muscle, typically, has been correlated with increased oxidative performance (e.g., increased running endurance) of such skeletal muscle. […] Accordingly, to determine the functional effects of ligand, age and weight matched cohorts of treated and control mice were subjected to an endurance treadmill performance test before (week 0) and after (week 5) treatment.
In addition to affecting the contractile apparatus of skeletal muscle, exercise training also increases skeletal muscle mitochondrial density (e.g., Freyssenet et al., Arch. Physiol. Biochem., 104(2): 129-141, 1996). […] Mice in all groups were acclimated to moderate treadmill running and basal running endurance was determined as described in Example 1. Thereafter, mice in the exercise-trained groups received four weeks (5 days/week) of exercise training on a treadmill inclined at 5 degrees. […] At the end of four weeks, all exercise-trained mice were running for 50 min/day at 18 m/min. […] Unless otherwise noted, V, GW, Tr and GW+Tr subjects described in this and the examples below were similarly treated. At the end of the drug treatment and/or training protocol (Week 5) 6 mice per group were subjected to the running test. […] RNA was prepared real time quantitative PCR performed as described in Example 1.
At the end of the drug treatment and/or training protocol (Week 5) 6 mice per group were subjected to the running test.
At the end of the drug treatment and/or training protocol (Week 5), running endurance of six mice per group was determined in the same manner as was basal running endurance. […] on three mice in each group to confirm that changes observed in the skeletal muscle were not due to the acute run, but were related to the exercise training.

myosin heavy chain (MHC) = assay: Myosin heavy chain (MHC) expression; type: in vivo, mouse
Protocol: In addition to its effects on the fiber type, exercise training increased skeletal muscle mitochondrial biogenesis, which can be measured as a function of mitochondrial DNA expression levels using quantitative real time PCR (QPCR). Mitochondrial DNA expression levels were determined in muscles of V, GW, Tr, and GW+Tr subjects using quantitative real time PCR. […] Such an increase is known to contribute to enhanced endurance capacity (e.g., Holloszy, Med. Sci. Sports 7:155-64, 1975). Slow-twitch and fast-twitch muscle fiber types also can be distinguished by myosin isoform expression (Gauthier and Lowey, J. Cell Biol. 81:10-25, 1979; Fitzsimons and Hoh, Biochem. J. 193:229-33, 1981). […] Therefore, at least at the transcriptional level, the PPARδ agonist was capable of inducing some proteins characteristic of a slow-twitch muscle fiber phenotype.

[1] = system: myoglobin, UCP3, cytochrome c (CYCS) and SCDl; assay: Western blotting of oxidative biomarkers in quadriceps; type: in vivo, mouse; settings: combined exercise and GW1516 vs either alone
Protocol: In addition to gene expression, protein expression was determined for selective oxidative biomarkers including myoglobin, UCP3, cytochrome c (CYCS) and SCDl, using Western blotting. Protein homogenates were prepared from quadriceps muscle, separated by SDS polyacrylamide gel electrophoresis, transferred to blotting membrane and probed with antibodies specific for myoglobin (Dako), UCP3 (Affinity Bioreagents), cytochrome c (Santacruz) SCDl (Santacruz), and, as a loading control, tubulin (Sigma).

[2] = Exercise effect in healthy adult human subjects (Example 9); type: in vivo; settings: 1 to 20 mg per day oral with aerobic exercise
Protocol: Healthy adult human subjects perform aerobic exercise (e.g., running) for at least 30 minutes (e.g., 30-90 minutes) for at least 3-4 days per week (e.g., 3-7 days per week) for at least 2 weeks (e.g., at least 4-12 weeks). The exercise is performed at 40%-50% maximal heart rate, […] maximal heart rate, 60%-70% maximal heart rate, or 75%-80% maximal heart rate, where maximum heart rate for a human subject is calculated as: 220 bps−(age of the subject). […] Subjects can continue to perform aerobic exercise while receiving GW1516. […] The exercise effect achieved in the treated subjects (e.g., running endurance) can be compared to such an effect in untreated subjects. Exercise effect can be measured using methods known in the art, such as measuring aerobic or running endurance (for example measuring distance run until exhaustion or amount of time to run a particular distance). In some instances, the exercise effect of interest is increased in treated subjects by at least 5%, such as at least 10% as compared to untreated subjects.

[3] = 4 weeks exercise training + GW1516, Week 5

Cc1cc(SCc2sc(-c3ccc(C(F)(F)F)cc3)nc2C)ccc1OCC(=O)O [GW1516, (2-methyl-4(((4-methyl-2-(4-trifluoromethylphenyl)-1,3-thiazol-5-yl)methyl)sulfanyl)phenoxy)acetic acid]
increase in running distance over vehicle-treated trained mice (C57B/6J mice; [3]): 70% | increase in running time over vehicle-treated trained mice (C57B/6J mice; [3]): 68% | run longer and further than nontreated controls (C57B/6J mice; combined with exercise training): 60%-75% | increment in endurance capacity, week 5 vs week 0 (C57B/6J mice; exercise and drug treatment, individual mice): 100% | time spent or distance run on the treadmill prior to exhaustion vs controls (C57B/6J mice; sedentary mice, 5 mg/kg oral once per day, 4 weeks): did not significantly differ | running endurance (C57B/6J mice; sedentary mice, long-term treatment up to 5 months): did not change | MHC I and MHC lib expression (myosin heavy chain (MHC); GW1516 combined with exercise): did not induce additional changes | expression of MHC Ha (myosin heavy chain (MHC); sedentary mice): did not alter | expression of MHC I (myosin heavy chain (MHC); sedentary mice vs vehicle): increased | expression of MHC lib (myosin heavy chain (MHC); sedentary mice vs vehicle): decreased | myoglobin, UCP3, cytochrome c, and SCDl protein expression [1]: robust up regulation | increase of exercise effect vs untreated subjects [2]: at least 5%
